Laboratory results taken from article PMC5916221, “High-throughput identification of G protein-coupled receptor modulators through affinity mass spectrometry screening” (Chemical Science, 2018).
Where “and” joins values, the source holds several entries; their conditions need not be identical. Identical values can stand only once.

Assays:
[1] = molecular target: T1, glucagon-like peptide-1 receptor (GLP-1R) (Homo sapiens, UniProt P43220, DEL258-263); experiment: affinity MS on receptor-expressing membranes, binding index vs rhodopsin control
T1 construct: gene GLP1R; TMD residues 128–431 with intracellular loop 2 (258–263) replaced by rubredoxin, N-terminal BRIL
T1 sequence (P43220 128-257): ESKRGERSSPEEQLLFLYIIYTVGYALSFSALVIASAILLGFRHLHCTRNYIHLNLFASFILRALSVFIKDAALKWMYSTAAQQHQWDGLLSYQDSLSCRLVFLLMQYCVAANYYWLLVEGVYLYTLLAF
T1 sequence (P43220 264-431): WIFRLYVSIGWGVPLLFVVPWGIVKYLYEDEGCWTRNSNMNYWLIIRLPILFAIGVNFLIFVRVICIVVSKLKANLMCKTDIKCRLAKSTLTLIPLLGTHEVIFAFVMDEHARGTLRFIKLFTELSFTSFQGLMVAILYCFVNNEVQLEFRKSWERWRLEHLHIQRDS

5-HT2CR = molecular target: T2, 5-HT2CR (Homo sapiens, UniProt P28335); experiment: biochemical; set-up: CPM fluorescent dye thermal shift assay on purified receptor, Tm shift versus apo receptor; conditions: single replicate of two; for ΔTm (°C): 100 µM, binder
T2 construct: gene HTR2C
T2 sequence (P28335 1-458): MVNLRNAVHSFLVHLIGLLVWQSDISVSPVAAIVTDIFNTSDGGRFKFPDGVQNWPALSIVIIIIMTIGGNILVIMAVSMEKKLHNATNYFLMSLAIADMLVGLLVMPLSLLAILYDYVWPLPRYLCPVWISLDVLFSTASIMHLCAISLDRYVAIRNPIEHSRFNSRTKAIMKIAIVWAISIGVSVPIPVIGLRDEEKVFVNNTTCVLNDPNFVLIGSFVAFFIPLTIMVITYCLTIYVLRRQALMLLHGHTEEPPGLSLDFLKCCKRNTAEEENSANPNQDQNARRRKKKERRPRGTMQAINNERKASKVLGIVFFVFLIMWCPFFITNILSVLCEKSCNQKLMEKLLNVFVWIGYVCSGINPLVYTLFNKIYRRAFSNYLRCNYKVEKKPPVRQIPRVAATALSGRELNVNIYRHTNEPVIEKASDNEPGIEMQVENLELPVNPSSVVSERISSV
Description: The thermal shift assay using a CPM fluorescent dye (Sigma) was performed as described in the literature.[27] […] The protein sample was heated step-wise on a Rotor-Gene Thermo-optical Analyzer (QIAGEN Gmbh) from 25 °C to 95 °C. Upon temperature rise, the proteins unfolded and cysteine residues were exposed to form adducts with CPM, which were detected by fluorescence at 387/463 nm using an EnVision multilabel plate reader (PerkinElmer). From the normalized thermal stability curve, melting temperatures (Tm) were obtained by fitting the curve with a Boltzmann sigmoidal function using GraphPad Prism. Comparison of Tm for the apo receptor and receptor incubated with a compound gave rise to Tm shift (ΔTm) for the compound. Using stringent data processing criteria for compound annotation and hit selection (see ESI ^†), we identified a total of 23 initial hits from screening the 9 cocktails (Fig. 2, full data set in Table S1 ^†). Twelve were well characterized antagonists for 5-HT2CR or a closely-related subfamily member 5-HT2AR with a mean BI of 2.16 to 9.71 (full data set in Table S2 ^†). […] While their IC50 or Ki values from the ChEMBL database were all above 10 nM, 85% had IC50 or Ki > 100 nM towards 5-HT2CR. Therefore, the stringent BI cut-off defined for hit selection ensured identification of highest affinity ligands with a minimal false-positive rate. To verify the 11 initial hits with no documented binding to the 5-HT2 receptor family, a simple mixture was created by pooling and incubating them with the receptor-expressing membranes. Four hits were verified in this secondary affinity MS assay (Fig. 3a). Those that were invalidated could have resulted from compound misidentification or altered binding properties in the original complex mixtures. […] The radioligand competition assay verified potent antagonist binding of 3943 to all three 5-HT2 receptor subtypes in the nanomolar range, with stronger affinity to 5-HT2A/2BR than 5-HT2CR (Fig. 3c, S3b ^†). It was not surprising to identify a new antagonist against three 5-HT2 receptor subfamily members using our approach because of the high sequence homology and very similar ligand binding pockets among them.

Row | Structure (SMILES) | affinity MS on receptor-expressing membranes, binding index vs rhodopsin control [1] | ΔTm at 100 µM (5-HT2CR) | ΔTm (°C) (5-HT2CR)
1 | CS(=O)(=O)c1cccc(NC(=O)N(Cc2ccc(C(=O)Nc3nnn[nH]3)cc2)c2ccc(C3CCCCC3)cc2)c1 [NNC0640] | 3.31 binding index (ratio) | – | –
2 | CC1(C)CC([C@@H](Nc2ccc(-n3cnc(C(F)(F)F)c3)nc2)c2ccc(C(=O)NCCC(=O)O)cc2)C1 [PF06372222] | 16.66 binding index (ratio) | – | –
3 | CC(C)c1nc(CN(C)C(=O)N[C@H](C(=O)N[C@@H](Cc2ccccc2)C[C@H](O)[C@H](Cc2ccccc2)NC(=O)OCc2cncs2)C(C)C)cs1 [compound 462, Ritonavir] | – | 0.2 °C | –
4 | C[C@@H]1CN(c2c(F)c(F)c3c(=O)c(C(=O)O)cn(C4CC4)c3c2F)C[C@H](C)N1 [compound 1382, Orbifloxacin] | – | 2 °C | –
5 | O=C(NC1CCNCC1)c1n[nH]cc1NC(=O)c1c(Cl)cccc1Cl [compound 3931, AT 7519] | – | – | -3.0 °C and -0.2 °C
6 | C1=Cc2ccccc2C(=C2CCN(CCCCc3nn[nH]n3)CC2)c2ccccc21 [compound 3943, AT-56] | – | 6.2 °C | 6.9 °C
